How the values were obtained:
Conditions in all cases: 48 h
NOMO1 [1] = test: cell viability relative to DMSO control; higher = less cytotoxic
In short: (§1)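 Viability is expressed as a percentage of DMSO wells within each plate, and cell-free wells serve as background. Seeding densities in the 1536-well plates (5 μl) were 500 cells/well for NOMO1 or SEM leukemia cells and 1000 cells/well for P12-Ichikawa. Each line was adapted for at least four passages in each medium. Library compounds in DMSO were pin-dosed at 47 μM to 0.79 nM (11 points, threefold), and CellTiter-Glo One luminescence was read after 48 h at 37°C.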

P12-Ichikawa [2] = test: as above
In short: as §1

SEM cells [3] = test: as above
In short: as §1

NOMO1 [4] = test: AUC of viability dose-response curve (% viability x log10 dose units); higher = less sensitive
In short: (§2)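 Leukemia cells adapted to each medium were seeded in 1536-well plates (500 or 1000 cells/well) and given library compounds in DMSO for 48 h at 37°C. The 11 threefold doses spanned 47 μM to 0.79 nM, and CellTiter-Glo One luminescence was normalised per plate to DMSO and cell-free wells before four-parameter log-logistic fitting on log10 dose. Area under the curve was integrated with the trapezoidal rule, scaling curves above full viability and removing curves that failed quality control.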

P12-Ichikawa [5] = test: as above
In short: as §2

SEM cells [6] = test: as above
In short: as §2

CN1CCCC(CC1)N2\N=C(CC3=CC=C(Cl)C=C3)/C4=C(C=CC=C4)C2=O (stereo not given)
cell viability [%]
Conditions	NOMO1 [1]	P12-Ichikawa [2]	SEM cells [3]
HPLM + 10% dialyzed FBS, 0.000781 µM	101	112	92.9
HPLM + 10% dialyzed FBS, 0.00234 µM	108	112	110
HPLM + 10% dialyzed FBS, 0.00702 µM	109	116	104
HPLM + 10% dialyzed FBS, 0.0211 µM	122	111	114
HPLM + 10% dialyzed FBS, 0.0632 µM	127	123	110
HPLM + 10% dialyzed FBS, 0.19 µM	125	112	112
HPLM + 10% dialyzed FBS, 0.569 µM	112	119	99.1
HPLM + 10% dialyzed FBS, 1.71 µM	120	112	106
HPLM + 10% dialyzed FBS, 5.12 µM	109	116	111
HPLM + 10% dialyzed FBS, 15.4 µM	65.7	94.5	101
HPLM + 10% dialyzed FBS, 46.1 µM	48.1	51.9	74.9
RPMI 5 mM glucose + 10% FBS, 0.000781 µM	102	109	72.4
RPMI 5 mM glucose + 10% FBS, 0.00234 µM	107	105	78.3
RPMI 5 mM glucose + 10% FBS, 0.00702 µM	120	113	71.9
RPMI 5 mM glucose + 10% FBS, 0.0211 µM	109	116	79.5
RPMI 5 mM glucose + 10% FBS, 0.0632 µM	109	117	81.8
RPMI 5 mM glucose + 10% FBS, 0.19 µM	112	126	94.8
RPMI 5 mM glucose + 10% FBS, 0.569 µM	108	123	90.2
RPMI 5 mM glucose + 10% FBS, 1.71 µM	114	121	98.9
RPMI 5 mM glucose + 10% FBS, 5.12 µM	107	122	83.8
RPMI 5 mM glucose + 10% FBS, 15.4 µM	94.2	114	80.6
RPMI 5 mM glucose + 10% FBS, 46.1 µM	55.5	66.2	73.1
RPMI 5 mM glucose + 10% dialyzed FBS, 0.000781 µM	117	109	91.7
RPMI 5 mM glucose + 10% dialyzed FBS, 0.00234 µM	118	109	108
RPMI 5 mM glucose + 10% dialyzed FBS, 0.00702 µM	107	109	96.2
RPMI 5 mM glucose + 10% dialyzed FBS, 0.0211 µM	110	113	102
RPMI 5 mM glucose + 10% dialyzed FBS, 0.0632 µM	125	124	112
RPMI 5 mM glucose + 10% dialyzed FBS, 0.19 µM	128	128	105
RPMI 5 mM glucose + 10% dialyzed FBS, 0.569 µM	121	121	108
RPMI 5 mM glucose + 10% dialyzed FBS, 1.71 µM	109	114	121
RPMI 5 mM glucose + 10% dialyzed FBS, 5.12 µM	112	118	96.5
RPMI 5 mM glucose + 10% dialyzed FBS, 15.4 µM	106	103	109
RPMI 5 mM glucose + 10% dialyzed FBS, 46.1 µM	57.1	65.9	97.6

AUC of viability dose-response curve
Conditions	NOMO1 [4]	P12-Ichikawa [5]	SEM cells [6]
HPLM + 10% dialyzed FBS	440	455	468
RPMI 5 mM glucose + 10% FBS	457	466	394
RPMI 5 mM glucose + 10% dialyzed FBS	461	461	464

CC/1=C(/C(CC(=O)N1)C2=CC=C(C=C2)C(F)(F)F)C(=O)NC3=C(F)C=C4[NH]N=CC4=C3 (stereo not given)
cell viability [%]
Conditions	NOMO1 [1]	P12-Ichikawa [2]	SEM cells [3]
HPLM + 10% dialyzed FBS, 0.000781 µM	94.2	93.5	81.9
HPLM + 10% dialyzed FBS, 0.00234 µM	94.5	103	94.4
HPLM + 10% dialyzed FBS, 0.00702 µM	103	101	92.3
HPLM + 10% dialyzed FBS, 0.0211 µM	108	102	104
HPLM + 10% dialyzed FBS, 0.0632 µM	104	101	91.8
HPLM + 10% dialyzed FBS, 0.19 µM	100	99.1	89.4
HPLM + 10% dialyzed FBS, 0.569 µM	105	100	95.9
HPLM + 10% dialyzed FBS, 1.71 µM	98.6	97.3	89.3
HPLM + 10% dialyzed FBS, 5.12 µM	96.1	98.4	114
HPLM + 10% dialyzed FBS, 15.4 µM	33.6	58.6	29.9
HPLM + 10% dialyzed FBS, 46.1 µM	11.5	44.6	26.5
RPMI 5 mM glucose + 10% FBS, 0.000781 µM	92	96.2	102
RPMI 5 mM glucose + 10% FBS, 0.00234 µM	92.7	104	101
RPMI 5 mM glucose + 10% FBS, 0.00702 µM	85.7	102	94.2
RPMI 5 mM glucose + 10% FBS, 0.0211 µM	81.2	100	94.7
RPMI 5 mM glucose + 10% FBS, 0.0632 µM	89.6	108	84.3
RPMI 5 mM glucose + 10% FBS, 0.19 µM	86	99.9	92.8
RPMI 5 mM glucose + 10% FBS, 0.569 µM	86.9	104	108
RPMI 5 mM glucose + 10% FBS, 1.71 µM	82.4	98.3	92
RPMI 5 mM glucose + 10% FBS, 5.12 µM	84.2	98.3	108
RPMI 5 mM glucose + 10% FBS, 15.4 µM	66.7	66.9	31.9
RPMI 5 mM glucose + 10% FBS, 46.1 µM	23.9	62	31.8
RPMI 5 mM glucose + 10% dialyzed FBS, 0.000781 µM	91.7	95.3	97.9
RPMI 5 mM glucose + 10% dialyzed FBS, 0.00234 µM	89.1	99.8	80.9
RPMI 5 mM glucose + 10% dialyzed FBS, 0.00702 µM	104	99.9	102
RPMI 5 mM glucose + 10% dialyzed FBS, 0.0211 µM	96.1	101	84
RPMI 5 mM glucose + 10% dialyzed FBS, 0.0632 µM	95	104	96.8
RPMI 5 mM glucose + 10% dialyzed FBS, 0.19 µM	84.7	105	97.1
RPMI 5 mM glucose + 10% dialyzed FBS, 0.569 µM	97.5	107	100
RPMI 5 mM glucose + 10% dialyzed FBS, 1.71 µM	95.3	96.9	96.7
RPMI 5 mM glucose + 10% dialyzed FBS, 5.12 µM	92.1	107	109
RPMI 5 mM glucose + 10% dialyzed FBS, 15.4 µM	58	66.5	28.2
RPMI 5 mM glucose + 10% dialyzed FBS, 46.1 µM	28	47.6	32

AUC of viability dose-response curve
Conditions	NOMO1 [4]	P12-Ichikawa [5]	SEM cells [6]
HPLM + 10% dialyzed FBS	422	442	405
RPMI 5 mM glucose + 10% FBS	389	450	418
RPMI 5 mM glucose + 10% dialyzed FBS	415	448	411

Nc1cc(C(F)(F)F)c(-c2cc(N3CCOCC3)nc(N3CCOCC3)n2)cn1
cell viability [%]
Conditions	NOMO1 [1]	P12-Ichikawa [2]	SEM cells [3]
HPLM + 10% dialyzed FBS, 0.000781 µM	–	–	118
HPLM + 10% dialyzed FBS, 0.00234 µM	–	–	121
HPLM + 10% dialyzed FBS, 0.00702 µM	–	–	99
HPLM + 10% dialyzed FBS, 0.0211 µM	–	–	113
HPLM + 10% dialyzed FBS, 0.0632 µM	–	–	113
HPLM + 10% dialyzed FBS, 0.19 µM	–	–	88.5
HPLM + 10% dialyzed FBS, 0.569 µM	–	–	72.2
HPLM + 10% dialyzed FBS, 1.71 µM	–	–	43.4
HPLM + 10% dialyzed FBS, 5.12 µM	–	–	14
HPLM + 10% dialyzed FBS, 15.4 µM	–	–	6.54
HPLM + 10% dialyzed FBS, 46.1 µM	–	–	5.09
RPMI 5 mM glucose + 10% FBS, 0.000781 µM	115	111	88.9
RPMI 5 mM glucose + 10% FBS, 0.00234 µM	127	124	89.2
RPMI 5 mM glucose + 10% FBS, 0.00702 µM	118	135	88.1
RPMI 5 mM glucose + 10% FBS, 0.0211 µM	133	137	102
RPMI 5 mM glucose + 10% FBS, 0.0632 µM	130	133	90
RPMI 5 mM glucose + 10% FBS, 0.19 µM	120	126	64.2
RPMI 5 mM glucose + 10% FBS, 0.569 µM	98.4	94.8	75.6
RPMI 5 mM glucose + 10% FBS, 1.71 µM	74.5	67.2	27.4
RPMI 5 mM glucose + 10% FBS, 5.12 µM	14.8	15.7	6.68
RPMI 5 mM glucose + 10% FBS, 15.4 µM	6.77	13.2	3.92
RPMI 5 mM glucose + 10% FBS, 46.1 µM	7.91	7.95	2.34
RPMI 5 mM glucose + 10% dialyzed FBS, 0.000781 µM	–	–	113
RPMI 5 mM glucose + 10% dialyzed FBS, 0.00234 µM	–	–	131
RPMI 5 mM glucose + 10% dialyzed FBS, 0.00702 µM	–	–	121
RPMI 5 mM glucose + 10% dialyzed FBS, 0.0211 µM	–	–	123
RPMI 5 mM glucose + 10% dialyzed FBS, 0.0632 µM	–	–	118
RPMI 5 mM glucose + 10% dialyzed FBS, 0.19 µM	–	–	91.1
RPMI 5 mM glucose + 10% dialyzed FBS, 0.569 µM	–	–	74.1
RPMI 5 mM glucose + 10% dialyzed FBS, 1.71 µM	–	–	37.6
RPMI 5 mM glucose + 10% dialyzed FBS, 5.12 µM	–	–	14.6
RPMI 5 mM glucose + 10% dialyzed FBS, 15.4 µM	–	–	5.59
RPMI 5 mM glucose + 10% dialyzed FBS, 46.1 µM	–	–	3.9

AUC of viability dose-response curve
Conditions	NOMO1 [4]	P12-Ichikawa [5]	SEM cells [6]
HPLM + 10% dialyzed FBS	317	328	307
RPMI 5 mM glucose + 10% FBS	340	334	283
RPMI 5 mM glucose + 10% dialyzed FBS	334	329	299

Reference: the supplement of paper PMC11451515
